{"source": "patent US20240366648A1", "about": "“NAD-AUGMENTATION THERAPY FOR PARKINSON'S DISEASE” (Vestlandets Innovasjonsselskap AS (VIS), priority 2021, published 2024)", "key": {"[1]": {"test_system": "NAD metabolome in skeletal muscle", "test": "Metabolomic analysis (LC-MS) in skeletal muscle biopsies", "format": "in vivo, human", "conditions": "oral NR 1000 mg/day, 30 days", "protocol": "Biological material was collected at both visits, following a minimum 6-hour fasting and within 6 hours after study drug intake for visit 2. Sampling included whole blood, serum, peripheral blood mononuclear cells (PBMCs), cerebrospinal fluid (CSF) and muscle biopsy. Lumbar puncture was performed according to standard clinical procedures to collect 10 ml CSF. Needle biopsy of the vastus lateralis muscle was performed using a Bard Magnum biopsy gun (BD©, United States) and 12G×10 cm biopsy needles. Muscle biopsies were immediately dissected to remove any non-muscle tissue (e.g., fat or fascia) and snap-frozen in liquid nitrogen.\nStandard substances of all the targeted compounds were used to prepare stock standard solutions and these solutions were mixed and diluted to make serially diluted standard solutions in an internal standard solution containing 11 isotope-labeled compounds (NAD-13C5, NADH-d5, nicotinamide riboside-d4, nicotinic-d4 acid, nicotinic acid-d4 riboside, AMP-15N5, ATP-13C10, nicotinamide-d4, 1-methylnicotinamide-d3, adenosine-13C5 and GTP-13C10) in a concentration range of 0.0002 to 20 nmol/mL. Muscle tissues were added with water at 2.5 μL/mg raw material and then homogenized on an MM 400 mixer mill for 1 min twice. Methanol at 7.5 μL/mg raw material was then added and the samples were homogenized for 1 min three times. The samples were then placed at −20° C. for 2 h before centrifugation. 20 μL of the supernatant was mixed with 180 μL of the internal standard solution. The samples were then placed at 5° C. for 1 h and then centrifuged for 5 min at 21,000 g. The clear supernatants were used for LC-MS analyses. For metabolomic analyses in PBMCs, several aliquots of one sample were thawed on ice, centrifuged (10 min, 350×g, 4° C.), resuspended in ice-cold PBS and counted on a countess II cell counter. The equivalent volume of 10 Mio live cells was transferred into a new tube, centrifuged (10 min, 350×g, 4° C.), the supernatant removed, and the pellet immediately frozen on dry ice. Each PBMC sample was made into 75% methanol at a concentration of 50 μL per 1 Mio cells. After cell lysis on a MM 400 mixer mill for 1 min twice, the sample was centrifuged. 20 μL of the clear supernatant was mixed with 180 μL of the internal standard solution and was then used for LC-MS analysis.\nFor UPLC-MRM/MS, 10 μL aliquots of each standard solution and each sample solutions were injected to run LCMRM/MS either on a Waters Acquity UPLC coupled to a Sciex QTRAP 6500 Plus mass spectrometer with (−) ion detection or ESI or on an Agilent 1290 UHPLC system coupled to an Agilent 6495B QQQ mass spectrometer with (+) ion detection. For UPLC-(−) MRM/MS, a reversed-phase C18 LC column (2.1*100 mm, 1.8 μm) was used for LC separation, with the use of a tributylamine-ammonium acetate buffer (solvent A) and acetonitrile (solvent B) as the mobile phase for gradient elution at 50° C. and 0.25 mL/min. For UPLC-(+) MRM/MS, a reversed-phase C18 column (2.1*150 mm, 1.8 μm) was used for LC separation, with the use of hepatofluorobutyrate buffer (solvent A) and methanol (solvent B) as the mobile phase for gradient elution at 50° C. and 0.3 mL/min. Concentrations of individual metabolites detected in each sample were calculated by constructing linear-regression curves of individual metabolites with the analyte-to-internal standard peak area ratios (As/Ai) of standard solutions in each set of LC-MS runs and then by interpolating the calibration curves with the as/Ai values measured from injections of sample solutions in an appropriate concentration range for each compound. Sample preparation and metabolomic analyses were conducted at Creative Proteomics, NY, USA.\nThe between visit change ([visit 2]−[visit 1]) in MDS-UPDRS (total of subsections I-III; and individual subsections I, II and III) was compared between the NR and placebo groups using independent Student's t-test. […]"}, "[2]": {"test_system": "GDF15, FGF21, Nf-L, inflammatory cytokines", "test": "Nf-L, GDF15, FGF21 and cytokine detection in serum and CSF", "format": "in vivo, human", "protocol": "Neurofilament light chain (Nf-L) measurement in CSF and serum samples was carried out in duplicates using the Simoa NF-light Advantage (SR-X) Kit (Quanterix) according to the manufacturer's recommendations and analyzed on an Simoa SR-X instrument (Quanterix). GDF15 and FGF21 detection was carried out using ELISA kits GDF-15/MIC-1 Human ELISA (RD191135200R) and Fibroblast Growth Factor 21 Human ELISA (RD191108200R) from BioVendor according to manufacturer's recommendations. For CSF analyses of GDF15, CSF was diluted 1:2 in dilution buffer. All samples were analyzed twice in duplicates. Inflammatory Cytokine screening was carried out using the Human Cytokine Magnetic 35-plex panel (Invitrogen), detecting FGF-Basic, IL-1 beta, G-CSF, IL-10, IL-13, IL-6, IL-12, RANTES, Eotaxin, IL-17A, MIP-1 alpha, GM-CSF, MIP-1 beta, MCP-1, IL-15, EGF, IL-5, HGF, VEGF, IL-1 alpha, IFN-gamma, IL-17F, IFN-alpha, IL-9, IL-1RA, TNF-alpha, IL-3, IL-2, IL-7, IP-10, IL-2R, IL-22, MIG, IL-4, IL-8. CSF and serum samples were analyzed according to the manufacturer's recommendations and measured on a BioPlex 200 instrument (BioRad).\nThe between visit change ([visit 2]−[visit 1]) in MDS-UPDRS (total of subsections I-III; and individual subsections I, II and III) was compared between the NR and placebo groups using independent Student's t-test. In addition, the between visit change in MDS-UPDRS (total and subsections) within the NR, MRS-responder, and placebo groups was assessed by paired Student's t-test. For the 31P-MRS analyses, the change in measured metabolites between visit 1 and visit 2 was assessed in the placebo- and NR group using paired Student's t-test. In addition, the between-visit change in NAD/ATP-α was compared between the NR and placebo group by independent Student's t-test. For PET analyses, changes in network scores with treatment were evaluated for each group separately using paired Student's t-tests or permutation tests. Relationships between network values, NAD levels and MDS-UPDRS motor ratings or between treatment-related changes in these variables were evaluated using Pearson's product-moment correlations; Spearman rank-order correlation coefficients were computed for non-normal distributions of the variables. These statistical tests were performed using SPSS (SPSS Inc., Chicago, IL); results were considered significant for p≤0.05 (two-tailed). Metabolite quantification data, Nf-L; GDF15, FGF21 and cytokine data were analyzed by paired sample Wilcoxon test using GraphPad Prism v 6.07."}}, "data": [{"smiles": "NC(=O)c1ccc[n+]([C@@H]2O[C@H](CO)[C@@H](O)[C@H]2O)c1", "note": "[NR, nicotinamide riboside]", "values": [{"measurement": "Me-2-PY level in muscle tissue after treatment", "setting": "[1]", "value": "strongly elevated"}, {"measurement": "Me-4-PY level in muscle tissue after treatment", "setting": "[1]", "value": "strongly elevated"}, {"measurement": "NAAD level in muscle tissue after treatment", "setting": "[1]", "value": "strongly elevated"}, {"measurement": "Nam N-oxide level in muscle tissue after treatment", "setting": "[1]", "value": "strongly elevated"}, {"measurement": "acetyl-CoA, CoA, SAM and its metabolites, energy compounds such as ATP in muscle", "setting": "[1]", "value": "no significant change"}, {"measurement": "methyl-Nam (Me-Nam) level in muscle tissue after treatment", "setting": "[1]", "value": "strongly elevated"}, {"measurement": "steady state levels of NAD (NAD+ and NADH), NAD precursors and intermediates in muscle", "setting": "[1]", "value": "not significantly changed"}, {"measurement": "FGF21 in serum", "setting": "[2]; NR group, visit 2 vs visit 1", "value": "unchanged"}, {"measurement": "GDF15 levels in CSF (decrease)", "setting": "[2]; NR group, visit 2 vs visit 1", "value": "not in CSF"}, {"measurement": "GDF15 levels in serum", "setting": "[2]; NR group, visit 2 vs visit 1", "value": "mild but significant decrease"}, {"measurement": "neurofilament light chain (Nf-L) levels in serum and CSF", "setting": "[2]; NR group, visit 2 vs visit 1", "value": "unchanged"}, {"measurement": "levels of several inflammatory cytokines in serum and CSF", "setting": "[2]; NR group, within-group, visit 2 vs visit 1", "value": "reduced"}, {"measurement": "fold change of serum cytokines that also decreased in placebo, compared between groups", "setting": "[2]; NR vs placebo", "value": "no significant difference"}]}]}
